According to patent US20250277012A1 (Protagonist Therapeutics, Inc., priority 2021, published 2025):
Positions of bridges follow the written chain, without caps; N, C: chain ends. Non-standard residues stand in square brackets, D forms with d. Residues, ends and D or L forms follow the SMILES beside them. Groups on a side chain read outwards from the residue. *: point of attachment. X1 = C[N+](C)(CCNC(=O)CCCCCCCCCCCCCCCCC(=O)O)CC(=O)*; C18 diacid = O=C(O)CCCCCCCCCCCCCCCCC(=O)*; Dip = N[C@H](C(=O)O)C(c1ccccc1)c1ccccc1; Pro(3S-OH) = O=C(O)[C@H]1NCC[C@@H]1O; Palmitoyl = CCCCCCCCCCCCCCCC(=O)*; NMeT = CN[C@H](C(=O)O)[C@@H](C)O; β3hF = N[C@H](CC(=O)O)Cc1ccccc1; NMeK = CN[C@@H](CCCCN)C(=O)O; αMeP = C[C@@]1(C(=O)O)CCCN1; Isovaleryl = CC(C)CC(=O)*; Dap = NC[C@H](N)C(=O)O; AEEA = NCCOCCOCC(=O)O; Ahx = NCCCCCC(=O)O

What follows are compounds tested against T1, ferroportin (Homo sapiens, UniProt Q9NP59) (assay: T47D cell-based ferroportin internalization assay in presence of mouse serum albumin (MSA)). Conditions: T47D internalization assay in presence of mouse serum albumin (MSA); Table 6E.
T1 sequence (Q9NP59 1-571): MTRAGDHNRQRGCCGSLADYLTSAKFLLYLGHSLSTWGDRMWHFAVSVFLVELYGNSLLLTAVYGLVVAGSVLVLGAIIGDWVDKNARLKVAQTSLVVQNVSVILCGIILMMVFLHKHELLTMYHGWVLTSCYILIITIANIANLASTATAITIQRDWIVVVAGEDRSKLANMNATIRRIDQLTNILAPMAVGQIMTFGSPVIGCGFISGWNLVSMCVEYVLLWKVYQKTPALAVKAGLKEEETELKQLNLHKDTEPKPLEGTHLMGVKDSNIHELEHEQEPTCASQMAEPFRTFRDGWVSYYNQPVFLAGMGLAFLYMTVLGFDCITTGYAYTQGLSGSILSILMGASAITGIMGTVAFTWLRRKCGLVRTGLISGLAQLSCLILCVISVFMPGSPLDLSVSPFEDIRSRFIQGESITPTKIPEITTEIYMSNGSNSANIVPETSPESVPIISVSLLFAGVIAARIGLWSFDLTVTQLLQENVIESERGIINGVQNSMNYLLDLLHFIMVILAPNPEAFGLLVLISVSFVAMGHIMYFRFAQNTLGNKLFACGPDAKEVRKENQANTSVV
Design: a human breast carcinoma adherent cell line which endogenously expresses ferroportin; host or cells: T47D
Procedure: The potency of the peptides in causing ferroportin internalization was evaluated in a T47D cell-based assay. […] In this internalization assay, the potency of the test peptides was evaluated in presence of serum albumin which is the main protein component in the blood. T47D cells were maintained in RPMI media (containing required amount of fetal bovine serum) and regularly sub-cultured. In preparation for the assay, the cells were seeded in 96-well plates at a density of 80-100 k cells per well in 100 ul volume and allowed to rest overnight. […] Sigma, A3139). The test peptide dilution series were allowed to incubate at room temperature for 30 min. Then the media was aspirated from the 96-well cell plate and test peptide dilution series were added. […] The AF647-conjugated detection peptide was previously verified to bind to ferroportin and cause its internalization. The cells were washed again after a 2 hr incubation in preparation for flow cytometry analysis. The Median Fluorescence Intensity (MFI) of the AF647-positive population was measured (after removing dead cells and non-singlets from the analysis). The MFI values were used to generate a dose-response curve and obtain IC50 potencies for the test peptides.

Row | IC50 [µM] | SMILES
1 | 0.01 to 0.1 | COC(=O)CC[C@H](NC(=O)CC(C)C)C(=O)N[C@H](C(=O)N[C@@H](Cc1c[nH]cn1)C(=O)N[C@H](C(=O)N1CCC[C@H]1C(=O)N[C@H]1CSSC[C@@H](C(=O)N[C@@H](CCCCNC(=O)CCCCCNC(=O)C[N+](C)(C)CCNC(=O)CCCCCCCCCCCCCCCCC(=O)O)C(=O)N[C@H](CC(=O)N[C@H](CCCCN)C(N)=O)Cc2ccccc2)NC1=O)C(c1ccccc1)c1ccccc1)[C@@H](C)O [compound 315] (Isovaleryl-E(OMe)TH[Dip]PCCK([Ahx-X1])[β3hF][dK]-NH2; disulfide 6-7)
2 | 0.01 to 0.1 | CC(C)CC(=O)N[C@@H](CCC(=O)O)C(=O)N1CC[C@H](O)[C@H]1C(=O)N[C@@H](Cc1c[nH]cn1)C(=O)N[C@H](C(=O)N1CCC[C@H]1C(=O)N[C@H]1CSSC[C@@H](C(=O)N(C)[C@@H](CCCCNC(=O)COCCOCCNC(=O)COCCOCCNC(=O)[C@H](CN)NC(=O)CCCCCCCCCCCCCCCCC(=O)O)C(=O)N[C@H](CC(=O)N[C@H](CCCCN)C(N)=O)Cc2ccccc2)NC1=O)C(c1ccccc1)c1ccccc1 [compound 253] (Isovaleryl-E[Pro(3S-OH)]H[Dip]PCC[NMeK]([AEEA-AEEA-Dap-C18 diacid])[β3hF][dK]-NH2; disulfide 6-7)

Same assay, conditions: Table 6E; T47D internalization assay with MSA

Row | IC50 [µM] | SMILES
3 | 0.001 to 0.01 | CCCCCCCCCCCCCCCC(=O)NCCCCCC(=O)NCCCC[C@@H](C(=O)N[C@H](C(=O)N[C@H](CCCCN)C(N)=O)C(c1ccccc1)c1ccccc1)N(C)C(=O)[C@@H]1CSSC[C@H](NC(=O)[C@@H]2CCCN2C(=O)[C@@H](NC(=O)[C@H](Cc2cnc[nH]2)NC(=O)[C@@H]2CCCN2C(=O)[C@H](CCC(=O)O)NC(=O)CC(C)C)C(c2ccccc2)c2ccccc2)C(=O)N1 [compound 171] (Isovaleryl-EPH[Dip]PCC[NMeK]([Ahx-Palmitoyl])[Dip][dK]-NH2; disulfide 6-7)
4 | 0.01 to 0.1 | COC(=O)CC[C@H](NC(=O)CC(C)C)C(=O)N1CCC[C@@]1(C)C(=O)N[C@@H](Cc1c[nH]cn1)C(=O)N[C@H](C(=O)N1CCC[C@H]1C(=O)N[C@H]1CSSC[C@@H](C(=O)N(C)[C@@H](CCCCNC(=O)CCCCCNC(=O)C[N+](C)(C)CCNC(=O)CCCCCCCCCCCCCCCCC(=O)O)C(=O)N[C@H](C(=O)N[C@H](CCCCN)C(N)=O)C(c2ccccc2)c2ccccc2)NC1=O)C(c1ccccc1)c1ccccc1 [compound 145] (Isovaleryl-E(OMe)[αMeP]H[Dip]PCC[NMeK]([Ahx-X1])[Dip][dK]-NH2; disulfide 6-7)
5 | > 0.5 | CC(C)CC(=O)N[C@@H](CCC(=O)O)C(=O)N1CCC[C@H]1C(=O)N[C@@H](Cc1c[nH]cn1)C(=O)N[C@H](C(=O)N1CCC[C@H]1C(=O)N[C@H]1CSSC[C@@H](C(=O)N(C)[C@@H](CCCCNC(=O)CCCCCNC(=O)C[N+](C)(C)CCNC(=O)CCCCCCCCCCCCCCCCC(=O)O)C(=O)N[C@H](C(=O)N[C@H](CCCCN)C(N)=O)C(c2ccccc2)c2ccccc2)NC1=O)C(c1ccccc1)c1ccccc1 [compound 188] (Isovaleryl-EPH[Dip]PCC[NMeK]([Ahx-X1])[Dip][dK]-NH2; disulfide 6-7)
6 | 0.1 to 0.5 | COC(=O)CC[C@H](NC(=O)CC(C)C)C(=O)N(C)[C@H](C(=O)N[C@@H](Cc1c[nH]cn1)C(=O)N[C@H](C(=O)N1CCC[C@H]1C(=O)N[C@H]1CSSC[C@@H](C(=O)N(C)[C@@H](CCCCNC(=O)CCCCCNC(=O)C[N+](C)(C)CCNC(=O)CCCCCCCCCCCCCCCCC(=O)O)C(=O)N[C@H](C(=O)N(C)[C@@H](CCCCN)C(N)=O)C(c2ccccc2)c2ccccc2)NC1=O)C(c1ccccc1)c1ccccc1)[C@@H](C)O [compound 153] (Isovaleryl-E(OMe)[NMeT]H[Dip]PCC[NMeK]([Ahx-X1])[Dip][NMeK]-NH2; disulfide 6-7)
7 | 0.01 to 0.1 | CC(C)CC(=O)N[C@@H](CCC(=O)O)C(=O)N[C@H](C(=O)N[C@@H](Cc1cnc[nH]1)C(=O)N[C@H](C(=O)N1CCC[C@H]1C(=O)N[C@H]1CSSC[C@@H](C(=O)N(C)[C@@H](CCCCNC(=O)CCCCCNC(=O)C[N+](C)(C)CCNC(=O)CCCCCCCCCCCCCCCCC(=O)O)C(=O)N[C@H](C(=O)N[C@H](CCCCN)C(N)=O)C(c2ccccc2)c2ccccc2)NC1=O)C(c1ccccc1)c1ccccc1)[C@@H](C)O [compound 198] (Isovaleryl-ETH[Dip]PCC[NMeK]([Ahx-X1])[Dip][dK]-NH2; disulfide 6-7)
